This test has as its target recombinant human PAI-1 (Homo sapiens, UniProt P05121). The test is described as follows: biochemical.
Where [1] appears, read: read-out: Inhibition Rate of PAI-1 Activity (%).
The mark [2] stands for this setting: read-out: Inhibition Rate of PAI Activity (%).

Where two headings read alike, the source gives them in different places.
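Note: PAI-1 preincubated with compound, then two-chain tPA added, residual tPA activity read with fluorogenic Pyr-Gly-Arg-MCA substrate after 30 min at room temperature.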

Chain of recombinant human PAI-1 (P05121 24-402): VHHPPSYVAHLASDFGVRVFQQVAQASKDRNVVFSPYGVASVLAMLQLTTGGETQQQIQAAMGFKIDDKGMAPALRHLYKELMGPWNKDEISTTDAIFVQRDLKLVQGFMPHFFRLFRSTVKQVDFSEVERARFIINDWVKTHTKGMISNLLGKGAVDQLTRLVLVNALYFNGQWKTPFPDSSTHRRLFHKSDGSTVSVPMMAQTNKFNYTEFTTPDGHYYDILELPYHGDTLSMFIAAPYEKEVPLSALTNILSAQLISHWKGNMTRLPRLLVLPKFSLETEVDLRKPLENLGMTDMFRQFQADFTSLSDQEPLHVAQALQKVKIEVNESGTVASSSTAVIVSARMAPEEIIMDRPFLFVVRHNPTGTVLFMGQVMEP

As to `CC(C)(C)c1ccc(COc2c(Cl)cc(-c3ccc(OC(F)(F)F)cc3)cc2CCC(=O)O)cc1` [Compound 92], under setting [1], the inhibition at 5 µM is 25%, the inhibition at 10 µM stood at 63% and the inhibition at 25 µM stood at 97%.

Regarding `CC(C)(C)c1ccc(Oc2cccc(-c3ccc(OC(F)(F)F)cc3)c2/C=C/C(=O)O)cc1` [Compound 93], under setting [1], the inhibition at 5 µM is 51%, the inhibition at 10 µM turned out to be 87% and the inhibition at 25 µM is 94%.

`COc1cc(-c2ccc(OC(F)(F)F)cc2)cc(CCC(=O)O)c1OCc1ccc(C(C)(C)C)cc1` [Compound 82]: under setting [1], the inhibition at 5 µM was determined as 26%, the inhibition at 10 µM was found to be 59% and the inhibition at 25 µM was 98%.

For `CCCOc1ccc(N(Cc2ccccc2)C(=O)C(=O)O)cc1-c1ccc(OC(F)(F)F)cc1` [Compound 210], under setting [1], the inhibition at 5 µM was determined as 39%, the inhibition at 10 µM amounted to 70% and the inhibition at 25 µM turned out to be 94%.

Take `CC(C)(C)c1ccc(-c2ccc(N(Cc3ccc(Cl)cc3)C(=O)C(=O)O)cc2)cc1` [Compound 204]: under setting [1], the inhibition at 5 µM was 58%, the inhibition at 10 µM was found to be 85% and the inhibition at 25 µM is > 99%.

For `CC(C)(C)c1ccc(CN(C(=O)C(=O)O)c2ccccc2OCc2ccc(OC(F)(F)F)cc2)cc1` [Compound 620], under setting [1], the inhibition at 5 µM is 41%, the inhibition at 10 µM came out at 77% and the inhibition at 25 µM turned out to be 95%.

For `CCCCCOc1ccc(-c2ccc(OC(F)(F)F)cc2)cc1N(Cc1ccccc1)C(=O)C(=O)O` [Compound 195], under setting [1], the inhibition at 5 µM amounted to 77%, the inhibition at 10 µM was found to be 94% and the inhibition at 25 µM came out at 93%.

For `CC(C)(C)Oc1ccc(N(CCCCc2ccccc2)C(=O)C(=O)O)cc1-c1ccc(OC(F)(F)F)cc1` [Compound 249], under setting [1], the inhibition at 5 µM stood at 68% and the inhibition at 10 µM came out at 89%.

Regarding `CCCCCOc1ccc(-c2ccc(OC(F)(F)F)cc2)cc1N(CCCCCc1ccccc1)C(=O)C(=O)O` [Compound 242], under setting [1], the inhibition at 5 µM came out at 88% and the inhibition at 10 µM came out at 94%.

For the molecule `O=C(O)C(=O)N(Cc1ccccc1)c1c(Cl)cc(-c2ccc(OC(F)(F)F)cc2)cc1Cl` [Compound 180], under setting [1], the inhibition at 5 µM was found to be 19%, the inhibition at 10 µM turned out to be 36% and the inhibition at 25 µM was found to be 71%.

As for `CC(C)(C)c1ccc(CN(C(=O)C(=O)O)c2ccc(N3CCOCC3)c(-c3ccc(OC(F)(F)F)cc3)c2)cc1` [Compound 216], under setting [1], the inhibition at 5 µM came to 75%, the inhibition at 10 µM is 88% and the inhibition at 25 µM was found to be 84%.

On to `CC(C)(C)c1ccc(COc2cc(-c3ccc(OC(F)(F)F)cc3)ccc2/C=C/C(=O)O)cc1` [Compound 75], for which, under setting [1], the inhibition at 5 µM turned out to be 25%, the inhibition at 10 µM was determined as 53% and the inhibition at 25 µM was found to be 91%.

Turning to `CC(C)(C)c1ccc(CN(C(=O)C(=O)O)c2ccccc2Oc2ccc(OC(F)(F)F)cc2)cc1` [Compound 153], under setting [1], the inhibition at 5 µM was found to be 20%, the inhibition at 10 µM turned out to be 54% and the inhibition at 25 µM came to 93%.

Consider `CC(C)(C)c1ccc(CN(C(=O)C(=O)O)c2cc(Oc3ccc(OC(F)(F)F)cc3)cc(C(F)(F)F)c2)cc1` [Compound 175], for which, under setting [1], the inhibition at 5 µM was determined as 66%, the inhibition at 10 µM was 94% and the inhibition at 25 µM came out at 87%.

For `CC(C)(C)c1ccc(CN(C(=O)C(=O)O)c2ccc(SCc3ccc(OC(F)(F)F)cc3)cc2)cc1` [Compound 630], under setting [1], the inhibition at 5 µM was 56%, the inhibition at 10 µM stood at 89% and the inhibition at 25 µM amounted to 88%.

For `CC(C)(C)c1ccc(-c2ccc(N(Cc3ccc(OC(F)(F)F)cc3)C(=O)C(=O)O)cc2)cc1` [Compound 162], under setting [1], the inhibition at 5 µM came out at 30%, the inhibition at 10 µM was determined as 74% and the inhibition at 25 µM was > 99%.

Consider `CC(C)(C)c1ccc(CN(C(=O)C(=O)O)c2ccc(-c3ccc(C#N)cc3)cc2)cc1` [Compound 149], for which, under setting [1], the inhibition at 10 µM came out at 3% and the inhibition at 25 µM turned out to be 34%.

As to `CC(C)(C)c1ccc(CN(C(=O)C(=O)O)c2ccc(-c3ccc(OC(F)(F)F)cc3)cc2C(F)(F)F)cc1` [Compound 150], under setting [1], the inhibition at 5 µM came out at 33%, the inhibition at 10 µM was 75% and the inhibition at 25 µM is 87%.

For `CCCCCN(C(=O)C(=O)O)c1ccc(-c2ccc(OC(F)(F)F)cc2)cc1` [Compound 254], under setting [1], the inhibition at 5 µM amounted to 3%, the inhibition at 10 µM is 9% and the inhibition at 25 µM is 31%.

Take `Cc1ccc(N(Cc2ccc(C(C)(C)C)cc2)C(=O)C(=O)O)cc1Oc1ccc(OC(F)(F)F)cc1` [Compound 187]: under setting [1], the inhibition at 5 µM stood at 75%, the inhibition at 10 µM worked out at 92% and the inhibition at 25 µM amounted to 88%.

Consider `CC(C)(C)c1ccc(CN(C(=O)C(=O)O)c2ccc(Oc3ccc(OC(F)(F)F)cc3)cc2)cc1` [Compound 132], for which, under setting [1], the inhibition at 10 µM came out at 32% and the inhibition at 25 µM turned out to be 82%.

Consider `CC(C)(C)c1ccc(N(C(=O)C(=O)O)c2cccc(Oc3ccc(OC(F)(F)F)cc3)c2)cc1` [Compound 170], for which, under setting [1], the inhibition at 5 µM stood at 38%, the inhibition at 10 µM was determined as 73% and the inhibition at 25 µM came out at 94%.

With `CCCOc1ccc(-c2ccc(OC(F)(F)F)cc2)cc1N(CCCCc1ccccc1)C(=O)C(=O)O` [Compound 236], under setting [1], the inhibition at 5 µM stood at 61%, the inhibition at 10 µM stood at 86% and the inhibition at 25 µM was 95%.

In the case of `CC(C)(C)c1ccc(Oc2cc(-c3ccc(OC(F)(F)F)cc3)ccc2OC(F)C(=O)O)cc1` (stereo not shown) [Compound 119], under setting [1], the inhibition at 5 µM worked out at 75%, the inhibition at 10 µM was found to be 93% and the inhibition at 25 µM was determined as 99%.

`CC(C)(C)c1ccc(CN(C(=O)C(=O)O)c2ccc(-c3ccc(F)cc3)cc2)cc1` [Compound 127]: under setting [1], the inhibition at 5 µM came to 21% and the inhibition at 10 µM is 43%.

Consider `CC(C)(C)c1ccc(CN(C(=O)C(=O)O)c2ccc(OCc3ccc(OC(F)(F)F)cc3)c(OCc3ccc(OC(F)(F)F)cc3)c2)cc1` [Compound 622], for which, under setting [1], the inhibition at 5 µM was 44%, the inhibition at 10 µM was 72% and the inhibition at 25 µM stood at 88%.

Consider `O=C(O)CCc1cc(-c2ccc(OC(F)(F)F)cc2)ccc1OCc1ccccc1C(F)(F)F` [Compound 21], for which, under setting [2], the inhibition at 10 µM was 11% and the inhibition at 25 µM is 70%.

For the molecule `CC(C)(C)c1ccc(COc2cc(CCC(=O)O)cc(Oc3ccc(OC(F)(F)F)cc3)c2)cc1` [Compound 410], under setting [1], the inhibition at 5 µM was 37%, the inhibition at 10 µM was 71% and the inhibition at 25 µM turned out to be 98%.

Regarding `COc1cc(-c2ccc(OC(F)(F)F)cc2)cc(/C=C/C(=O)O)c1OCc1ccc(C(C)(C)C)cc1` [Compound 81], under setting [1], the inhibition at 5 µM stood at 28%, the inhibition at 10 µM stood at 63% and the inhibition at 25 µM was 70%.

`CC(C)(C)c1ccc(CN(C(=O)C(=O)O)c2ccc(OCc3ccc(OC(F)(F)F)cc3)cc2)cc1` [Compound 616]: under setting [1], the inhibition at 5 µM came out at 49%, the inhibition at 10 µM was found to be 83% and the inhibition at 25 µM was found to be 96%.

Consider `CC(C)(C)c1ccc(CN(C(=O)C(=O)O)c2ccc(Cl)cc2Oc2ccc(OC(F)(F)F)cc2)cc1` [Compound 191], for which, under setting [1], the inhibition at 5 µM was found to be 74%, the inhibition at 10 µM came to 92% and the inhibition at 25 µM worked out at 87%.

Take `Cc1cc(-c2ccc(OC(F)(F)F)cc2)cc(CCC(=O)O)c1OCc1ccc(C(C)(C)C)cc1` [Compound 84]: under setting [1], the inhibition at 5 µM was 28%, the inhibition at 10 µM was found to be 62% and the inhibition at 25 µM stood at 95%.

In the case of `CC(C)(C)c1ccc(CN(C(=O)C(=O)O)c2ccc(-c3ccc(OC(F)(F)F)cc3)c(C(F)(F)F)c2)cc1` [Compound 166], under setting [1], the inhibition at 5 µM amounted to 44%, the inhibition at 10 µM was determined as 79% and the inhibition at 25 µM came out at 84%.

Turning to `CC(C)c1ccc(Oc2ccc(/C=C/C(=O)O)c(Oc3ccc(C(C)C)cc3)c2)cc1` [Compound 72], under setting [1], the inhibition at 5 µM worked out at 32%, the inhibition at 10 µM turned out to be 72% and the inhibition at 25 µM was determined as 98%.

As to `CC(OCC(=O)O)c1cc(-c2ccc(OC(F)(F)F)cc2)ccc1OCc1ccc(C(C)(C)C)cc1` (stereo not shown) [Compound 108], under setting [1], the inhibition at 5 µM amounted to 52%, the inhibition at 10 µM is 86% and the inhibition at 25 µM is 95%.

For the molecule `COc1ccc(CN(C(=O)C(=O)O)c2ccc(-c3ccc(OC(F)(F)F)cc3)cc2)cc1` [Compound 131], under setting [1], the inhibition at 10 µM is 10% and the inhibition at 25 µM was 34%.

Turning to `Cc1cc(-c2ccc(OC(F)(F)F)cc2)cc(C)c1N(Cc1ccc(C(C)(C)C)cc1)C(=O)C(=O)O` [Compound 152], under setting [1], the inhibition at 5 µM stood at 41%, the inhibition at 10 µM turned out to be 88% and the inhibition at 25 µM is 93%.

Regarding `CC(C)(C)c1ccc(N(C(=O)C(=O)O)c2cccc(-c3ccc(OC(F)(F)F)cc3)c2)cc1` [Compound 158], under setting [1], the inhibition at 5 µM turned out to be 26%, the inhibition at 10 µM amounted to 61% and the inhibition at 25 µM is > 99%.

Turning to `CC(C)(C)c1ccc(Oc2cc(-c3ccc(OC(F)(F)F)cc3)ccc2/C=C/C(=O)O)cc1` [Compound 79], under setting [1], the inhibition at 5 µM stood at 39%, the inhibition at 10 µM amounted to 84% and the inhibition at 25 µM was 90%.

Turning to `CC(C)(C)c1ccc(COc2ccc(Oc3ccc(OC(F)(F)F)cc3)cc2/C=C/C(=O)O)cc1` [Compound 95], under setting [1], the inhibition at 5 µM turned out to be 28%, the inhibition at 10 µM was found to be 77% and the inhibition at 25 µM stood at 96%.

As for `Cc1cc(C)cc(CN(C(=O)C(=O)O)c2ccc(-c3ccc(OC(F)(F)F)cc3)cc2)c1` [Compound 123], under setting [1], the inhibition at 5 µM stood at 27% and the inhibition at 10 µM turned out to be 62%.

On to `CN(c1ccc(OC(F)(F)F)cc1)c1ccc(OCc2ccc(C(C)(C)C)cc2)c(CCC(=O)O)c1` [Compound 417], for which, under setting [1], the inhibition at 5 µM worked out at 44%, the inhibition at 10 µM came out at 79% and the inhibition at 25 µM amounted to 98%.

Usually inhibition stands for the percentage by which the read-out fell short of the control.

(Values after EP2272817A1, “PAI-1 INHIBITOR” (Institute of Medicinal Molecular Design, Inc., priority 2008, dated 2009).)
